Reference: patent US10781203B2, “Nontoxic compounds for the treatment and prevention of herpesvirus infections” (The Penn State Research Foundation, priority 2016, dated 2020)

How the values were obtained:
HSV-1 = experiment: Virus titer analysis of HSV; assay type: cell-based; details: MOI=3; harvested at 24 hpi
Excerpt: FIGS. 10A-10B show data to provide support for Retro94 and derivatives being effective against other herpesviruses. […] Samples were harvested at 24 hpi. Representative data shown are from independent replicates. FIG. 10B provides a table showing low nanomolar EC50 values of Retro94F against other herpesviruses.

HCMV [1] = experiment: HCMV multi-step growth curve (MOI=0.05); assay type: cell-based, Human cytomegalovirus (HCMV); details: MOI 0.05 pfu/cell; 15 dpi; media exchanged and fresh drug added at 6 dpi
Protocol: (§1) Infections were done at an MOI of 0.05 for multi-step growth curves and MOI 3 for single-step growth curves. Infections were done on NHDFs unless otherwise noted. Virus was incubated with cells for 2 hours before addition of fresh media. For growth curve analyses, virus was harvested at the indicated time-points for each experiment by scraping the cells into the medium, sonicating 10 times with 1 second pulses, vortexing for 15 seconds, and centrifuging at 13,000 rpm for 10 min. Supernatants were collected, aliquoted and flash-frozen in liquid nitrogen before storage at −80° C.
For MCMV growth curve analysis, samples were titrated on NIH 3T3 cells and titers were calculated using the 50% tissue culture infective dose method. Both HCMV virus stocks and samples for growth curves were titrated by serial dilutions on MRC5 cells and quantified by the immunological detection of immediate-early proteins as previously described (Britt W J. Human cytomegalovirus: propagation, quantification, and storage. Curr Protoc Microbiol. 2010; Chapter 14: Unit 14E.3). The numbers of stained nuclei were acquired on a Nikon Eclipse Ti Inverted microscope and fluorescent nuclei were quantified using the NIS Elements Software. Images of viral foci from infection of ARPE19 cells were also acquired on Eclipse Ti Inverted microscope. The number and size of foci were quantified using NIS Elements software. […]

[2] = test system: Towne, TB40, Merlin and Toledo strains of HCMV; experiment: Viral titers of fibroblasts infected with various strains of HCMV; assay type: cell-based, Human cytomegalovirus (HCMV); details: all four strains; MOI=0.05; treated at 2 hpi; 15 dpi
Protocol: (§2) FIG. 7A is a graph showing viral titers at 15 dpi of fibroblasts infected with various strains of HCMV (MOI=0.05) and treated with DMSO or Retro94 at 2 hpi. Media was changed and fresh Retro94 was added at 6 dpi. Bright field images representing CPE of above infections shown at right. FIG. 7B show HCMV-infected ARPE-19 cells (TB40, MOI=3) at 21 dpi treated with DMSO or Retro94 ([…]). Infected cells detected by monitoring mCherry (red) expressed by TB40 virus. Scale bars: 1 mm. The table below images show number of foci detected, average area and standard error of the mean. P<0.00001. […]
(§3) For MCMV growth curve analysis, samples were titrated on NIH 3T3 cells and titers were calculated using the 50% tissue culture infective dose method. Both HCMV virus stocks and samples for growth curves were titrated by serial dilutions on MRC5 cells and quantified by the immunological detection of immediate-early proteins as previously described (Britt W J. Human cytomegalovirus: propagation, quantification, and storage. Curr Protoc Microbiol. 2010; Chapter 14: Unit 14E.3). The numbers of stained nuclei were acquired on a Nikon Eclipse Ti Inverted microscope and fluorescent nuclei were quantified using the NIS Elements Software. […] The number and size of foci were quantified using NIS Elements software.

HCMV-infected cells = experiment: Western blot analysis of HCMV-infected cell lysates; assay type: cell-based, human; details: MOI=3, 10 μM
Protocol: Total cell lysates were prepared from uninfected or HCMV-infected cells (MOI=3) at the indicated time points by harvesting lystates in radioimmunoprecipitation assay buffer (1% NP-40, 1% sodium deoxycholate, 0.1% sodium dodecyl sulfate [SDS], 0.15 M NaCl, 10 mM sodium phosphate [pH 7.2], 2 mM EDTA, 50 mM NaF, 1 mM phenylmethylsulfonyl fluoride, […], 0.2 mM Na3VO4, 1 μg/ml leupeptin). After centrifugation, the supernatant was collected and stored at −80° C. The protein was quantified by a Bradford assay (Bio-Rad) and samples were analyzed by SDS-PAGE gel electrophoresis and immunoblotting on nitrocellulose or PVDF membrane blocked with 5% milk or 5% BSA in tris-buffered saline (0.1% tween). Antibody dilutions were in accordance with manufacturer's instructions.

[3] = test system: HCMV-infected ARPE-19 cells (TB40); experiment: Spread of HCMV TB40-mCherry in ARPE-19 cells (viral foci area); assay type: cell-based, Human cytomegalovirus (HCMV); details: TB40-mCherry MOI=3, 10 μM, three weeks after infection
Protocol: as §2, §3

HCMV [4] = experiment: HCMV single-step growth curve / virus titer analysis (MOI=3); assay type: cell-based, Human cytomegalovirus (HCMV); details: for reduction in infectious virion production: MOI=3, titers at 96 hpi
Protocol: as §1
For MCMV growth curve analysis, samples were titrated on NIH 3T3 cells and titers were calculated using the 50% tissue culture infective dose method. Both HCMV virus stocks and samples for growth curves were titrated by serial dilutions on MRC5 cells and quantified by the immunological detection of immediate-early proteins as previously described (Britt W J. Human cytomegalovirus: propagation, quantification, and storage. Curr Protoc Microbiol. 2010; Chapter 14: Unit 14E.3). The numbers of stained nuclei were acquired on a Nikon Eclipse Ti Inverted microscope and fluorescent nuclei were quantified using the NIS Elements Software. Images of viral foci from infection of ARPE19 cells were also acquired on Eclipse Ti Inverted microscope. The number and size of foci were quantified using NIS Elements software.
^1H NMR spectra were recorded on a 500 MHz Bruker spectrometer (Billerica, Mass.) using tetramethylsilane (TMS) as the internal reference. The following abbreviations were used to designate chemical shift multiplicities: s=singlet, d=doublet, dd=double doublet, t=triplet, dt=doublet of triplet, m=multiplet. Mass Spec analysis was performed on 4000 Q trap hybrid triple quadrupole/linear ion trap instrument (Applied Biosystems/MDS Sciex) at the proteomic facility at Penn State Hershey Cancer Institute, Hershey, Pa. Thin-layer chromatography (TLC) was on aluminum-supported, precoated silica gel plates (EM Industries, Gibbstown, N.J.). 5-(2-methyl-3-thiazol-4-yl)-2-thiophencarboxaldehyde was purchased from MAYBRIDGE-Thermo Fisher (Cornwall, UK). All other starting materials were obtained from Aldrich Chemical Co. (Milwaukee, Wis.) and used without further purification. Retro94 was added to cells at 2 hpi at a concentration of 10 μM, unless otherwise indicated.

SMILES: Cc1nc(-c2ccc(C3N(C)c4ccccc4C(=O)N3c3ccccc3)s2)cs1 (stereo not shown) [Retro94, 1-Methyl-2-(5-(2-methylthiazol-4-yl)thiophen-2-yl)-3phenyl-2,3-dihydroquinazolin-4(1H)-one]
- decrease of levels of HSV-1 (HSV-1): ~90%
- reduction in the amount of infectious virus produced (HCMV [1]): five
- viral titers lower in the presence of compound [2]: two to three
- STX5 protein level during infection (HCMV-infected cells): did not reach the same level as observed in control-treated samples
- steady state levels of immediate-early and late viral proteins (HCMV-infected cells; 24-96 hpi): not affected
- area of viral centers, DMSO treated versus compound treated cells [3]: more than twice
- IC50 (HCMV [4]; Human betaherpesvirus 5, added at 2 hpi, MOI 3, 96 hpi, read-out: IC50 (HCMV titers)): ~130 nM
- reduction of production of infectious virions (HCMV [4]; MOI 3 pfu/cell, added two hours after infection, 10 μM): greater than two
- reduction in infectious virion production (HCMV [4]; added at 2 hpi): two
- reduction in infectious virion production (HCMV [4]; added at 24 hpi): 20 fold
- reduction in infectious virion production (HCMV [4]; added at 48 hpi): 5 fold
- reduction in infectious virion production (HCMV [4]; added at 72 hpi): two
- dilution at which a significant inhibition in viral titers was first present (HCMV [4]; ten-fold dilutions added at 2 hpi, MOI 3, 96 hpi): 1 µM
